From ChEMBL document CHEMBL1201862, “PubChem BioAssay data set” (2004)
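96-well plates; 48 h exposure; 5 concentrations. Endpoints by linear interpolation between flanking doses. Not reached: highest tested concentration assigned. GI50 = concentration required for 50% inhibition of growth.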 Calls of active or inactive are those of the source. No stated cut-off is given here; in the data, active = GI50 up to about 1.1 µM and inactive = higher.

Assays:
Assay in all cases: growth of human tumour cells (NCI), 48 h
[1] = tested on: 786-0
[2] = tested on: A498
[3] = tested on: ACHN
[4] = tested on: CCRF-CEM
[5] = tested on: EKVX
[6] = tested on: HCT-116
[7] = tested on: Hs-578T
[8] = tested on: K562
[9] = tested on: MDA-MB-231
[10] = tested on: NCI-H460
[11] = tested on: OVCAR-4
[12] = tested on: OVCAR-5
[13] = tested on: RPMI-8226
[14] = tested on: SF-295
[15] = tested on: SF-539
[16] = tested on: SN12C
[17] = tested on: SNB-19
[18] = tested on: SNB-75
[19] = tested on: SW-620
[20] = tested on: U-251

Measured: GI50

O=c1c2ccccc2sc2c(CO)ccc(NCCN3CCCCC3)c12
inactive: [1] 2.47 µM | [2] 3.15 µM | [3] 2.39 µM | [4] 1.15 µM | [5] 4.66 µM | [6] 2.38 µM | [7] 4.38 µM | [8] 2 µM | [9] 5.48 µM | [10] 2.68 µM | [11] 2.48 µM | [12] 6.35 µM | [13] 1.91 µM | [14] 3.61 µM | [15] 5 µM | [16] 3.27 µM | [17] 4.73 µM | [18] 5.77 µM | [19] 2.25 µM | [20] 3.79 µM

CCOP(=O)(OCC)C(Nc1ccc(F)cc1)c1ccccc1 (centres undefined)
inactive: [1] > 100 µM | [2] > 100 µM | [3] > 100 µM | [4] > 100 µM | [5] > 100 µM | [6] > 100 µM | [7] > 100 µM | [8] 57.9 µM | [9] > 100 µM | [10] > 100 µM | [11] > 100 µM | [12] > 100 µM | [13] > 100 µM | [14] > 100 µM | [15] > 100 µM | [16] 43.8 µM | [17] > 100 µM | [18] > 100 µM | [19] > 100 µM | [20] > 100 µM

O=C1Nc2ccccc2/C1=N/N1C(=O)/C(=C/c2ccccc2S)N=C1c1ccccc1
inactive: [1] 79.8 µM | [2] > 100 µM | [3] 92.3 µM | [4] 33.3 µM | [5] 48.3 µM | [6] 99.8 µM | [7] > 100 µM | [8] 27.9 µM | [9] > 100 µM | [10] 73.6 µM | [11] 27 µM | [12] > 100 µM | [13] 12.6 µM | [14] > 100 µM | [15] > 100 µM | [16] > 100 µM | [17] > 100 µM | [18] > 100 µM | [19] 71.1 µM | [20] 67.6 µM

O=c1[nH]c(=O)n(C/C=C/CO)nc1Br
inactive: [1] > 100 µM | [2] > 100 µM | [3] > 100 µM | [4] > 100 µM | [5] > 100 µM | [6] > 100 µM | [7] > 100 µM | [9] > 100 µM | [10] > 100 µM | [11] > 100 µM | [12] > 100 µM | [13] > 100 µM | [14] > 100 µM | [15] > 100 µM | [16] > 100 µM | [17] > 100 µM | [18] > 100 µM | [19] > 100 µM | [20] > 100 µM
